This passage reports IC50 results from patent publication US9102621B2, “Acyl sulfonamide compounds” (Pfizer Limited, priority 2010, dated 2015).

pIC50: −log10 of the molar value. Structures can show the parent of a compound that is named as a salt. A value given as a limit tells only on which side of the number the result lay.

The target of this assay is T1, Nav1.7 (or SCN9A) channel (Homo sapiens, UniProt Q15858).
T1 construct: expressed in transfected cells
The assay can be described thus: Nav1.7 (hSCN9A) channel block, PatchXpress whole-cell electrophysiology. Format: cell-based. The settings on record: PatchXpress platform; HEK cells stably transfected with hSCN9A; estimated IC-50 calculated from single point % inhibition at V1/2; read-out: Nav1.7 EIC50. The protocol:
The ability of the compounds of formula (I) to block the Nav1.7 (or SCN9A) channel were measured using the assay described below.
Human Embryonic Kidney (HEK) cells were transfected with an hSCN9A construct using lipofectamine reagent (Invitrogen), using standard techniques. Cells stably expressing the hSCN9A constructs were identified by their resistance to G-418 (400 μg/ml). Clones were screened for expression using the whole-cell voltage-clamp technique.
HEK cells stably transfected with hSCN9A were maintained in DMEM medium supplemented with 10% heat-inactivated fetal bovine serum and 400 μg/ml G-418 in an incubator at 37° C. with a humidified atmosphere of 10% CO2. For HTS, cells were harvested from flasks by trypsinization and replated in an appropriate multi-well plate (typically 96 or 384 wells/plate) such that confluence would be achieved within 24 hours of plating. For electrophysiological studies, cells were removed from the culture flask by brief trypsinization and re-plated at low density onto glass cover slips. Cells were typically used for electrophysiological experiments within 24 to 72 hours after plating.
Cover slips containing HEK cells expressing hSCN9A were placed in a bath on the stage of an inverted microscope and perfused (approximately 1 ml/minutes) with extracellular solution of the following composition: 138 mM NaCl, 2 mM CaCl2, 5.4 mM KCl, 1 mM MgCl2, 10 mM glucose, and 10 mM HEPES, pH 7.4, with NaOH. […] The osmolarity of the extracellular and intracellular solutions was 300 mOsm/kg and 295 mOsm/kg, respectively. All recordings were made at room temperature (22-24° C.) using AXOPATCH 200B amplifiers and PCLAMP software (Axon Instruments, Burlingame, Calif.).
hSCN9A currents in HEK cells were measured using the whole-cell configuration of the patch-clamp technique (Hamill et al., 1981). Uncompensated series resistance was typically 2 to 5 mega ohms and >85% series resistance compensation was routinely achieved. As a result, voltage errors were negligible and no correction was applied. Current records were acquired at 20 to 50 KHz and filtered at 5 to 10 KHz.
HEK cells stably transfected with hSCN9A were viewed under Hoffman contrast optics and placed in front of an array of flow pipes emitting either control or compound-containing extracellular solutions. All compounds were dissolved in dimethyl sulfoxide to make 10 mM stock solutions, which were then diluted into extracellular solution to attain the final concentrations desired. […] The voltage-dependence of inactivation was determined by applying a series of depolarizing prepulses (8 sec long in 10 mV increments) from a negative holding potential. The voltage was then immediately stepped to 0 mV to assess the magnitude of the sodium current. Currents elicited at 0 mV were plotted as a function of prepulse potential to allow estimation of the voltage at which 50% of the channels were inactivated (midpoint of inactivation or V1/2). Compounds were tested for their ability to inhibit hSCN9A sodium channels by activating the channel with a 20 msec voltage step to 0 mV following an 8 second conditioning prepulse to the empirically determined V1/2. Compound effect (% inhibition) was determined by difference in current amplitude before and after application of test compounds. […] Inhibition values <20% and >80% were excluded from the calculation.
Electrophysiological assays were conducted with PatchXpress 7000 hardware and associated software (Molecular Devices Corp). All assay buffers and solutions were identical to those used in conventional whole-cell voltage clamp experiments described above. hSCN9A cells were grown as above to 50%-80% confluency and harvested by trypsinization. Trypsinized cells were washed and resuspended in extracellular buffer at a concentration of 1×10^6 cells/ml. The onboard liquid handling facility of the PatchXpress was used for dispensing cells and application of test compounds. […]

T1 sequence (Q15858 whole entry): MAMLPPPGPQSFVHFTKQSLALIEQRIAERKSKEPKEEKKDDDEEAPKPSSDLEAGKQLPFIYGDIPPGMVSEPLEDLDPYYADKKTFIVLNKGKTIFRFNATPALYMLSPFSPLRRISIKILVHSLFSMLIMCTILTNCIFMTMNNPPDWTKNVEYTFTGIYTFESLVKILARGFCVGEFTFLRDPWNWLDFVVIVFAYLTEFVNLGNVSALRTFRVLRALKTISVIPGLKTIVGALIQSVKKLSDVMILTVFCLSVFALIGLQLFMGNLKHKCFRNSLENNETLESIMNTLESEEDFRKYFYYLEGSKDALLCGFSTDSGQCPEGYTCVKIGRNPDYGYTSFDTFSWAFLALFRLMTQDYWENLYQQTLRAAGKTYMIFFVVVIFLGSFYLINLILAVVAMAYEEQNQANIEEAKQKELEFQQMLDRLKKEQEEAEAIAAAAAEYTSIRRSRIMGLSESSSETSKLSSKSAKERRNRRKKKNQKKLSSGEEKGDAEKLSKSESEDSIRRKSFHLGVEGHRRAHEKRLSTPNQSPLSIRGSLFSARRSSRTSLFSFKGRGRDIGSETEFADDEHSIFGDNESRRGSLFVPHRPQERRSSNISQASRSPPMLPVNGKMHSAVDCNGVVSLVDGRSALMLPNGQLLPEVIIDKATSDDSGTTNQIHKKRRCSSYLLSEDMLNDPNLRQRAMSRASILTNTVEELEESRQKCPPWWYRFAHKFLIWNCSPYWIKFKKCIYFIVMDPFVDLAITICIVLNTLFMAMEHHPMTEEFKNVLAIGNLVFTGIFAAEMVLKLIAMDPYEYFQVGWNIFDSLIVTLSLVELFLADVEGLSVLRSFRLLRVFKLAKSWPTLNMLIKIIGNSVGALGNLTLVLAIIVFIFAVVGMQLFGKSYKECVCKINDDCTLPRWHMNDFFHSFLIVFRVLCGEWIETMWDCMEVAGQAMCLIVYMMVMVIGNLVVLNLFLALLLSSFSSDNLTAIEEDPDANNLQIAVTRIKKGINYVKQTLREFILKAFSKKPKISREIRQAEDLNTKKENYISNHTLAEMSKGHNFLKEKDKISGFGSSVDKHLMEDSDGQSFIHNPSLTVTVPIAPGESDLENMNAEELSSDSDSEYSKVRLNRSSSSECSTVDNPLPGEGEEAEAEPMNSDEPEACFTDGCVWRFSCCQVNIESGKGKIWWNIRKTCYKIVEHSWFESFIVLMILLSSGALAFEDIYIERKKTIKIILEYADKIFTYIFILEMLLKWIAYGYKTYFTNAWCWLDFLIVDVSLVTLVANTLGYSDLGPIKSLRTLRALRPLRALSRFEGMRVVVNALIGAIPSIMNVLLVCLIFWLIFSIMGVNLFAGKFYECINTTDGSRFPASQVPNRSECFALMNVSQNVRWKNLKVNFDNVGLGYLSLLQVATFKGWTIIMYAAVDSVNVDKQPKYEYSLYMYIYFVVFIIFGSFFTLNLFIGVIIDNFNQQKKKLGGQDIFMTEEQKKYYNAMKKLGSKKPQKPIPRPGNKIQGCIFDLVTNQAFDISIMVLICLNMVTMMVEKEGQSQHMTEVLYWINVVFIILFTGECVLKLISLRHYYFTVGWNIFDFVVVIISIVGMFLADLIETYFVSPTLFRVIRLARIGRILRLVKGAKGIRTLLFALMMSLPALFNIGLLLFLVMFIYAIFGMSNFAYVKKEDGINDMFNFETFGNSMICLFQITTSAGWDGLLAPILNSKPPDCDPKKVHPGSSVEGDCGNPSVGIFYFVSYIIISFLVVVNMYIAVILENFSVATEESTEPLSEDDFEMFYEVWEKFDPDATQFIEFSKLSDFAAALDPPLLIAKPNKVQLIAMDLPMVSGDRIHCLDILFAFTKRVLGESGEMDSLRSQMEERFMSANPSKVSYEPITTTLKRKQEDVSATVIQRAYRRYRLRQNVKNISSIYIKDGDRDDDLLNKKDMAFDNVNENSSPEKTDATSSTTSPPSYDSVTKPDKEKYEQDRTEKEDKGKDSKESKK

`CC(C)(F)COc1ncc(OCc2cc(F)c(C(=O)NS(C)(=O)=O)cc2Cl)cc1Cl` [Example 45, 5-Chloro-4-({[5-chloro-6-(2-fluoro-2-methylpropoxy)pyridin-3-yl]oxy}methyl)-2-fluoro-N-(methylsulfonyl)benzamide]: the pIC50 is 7.24. With `CS(=O)(=O)NC(=O)c1cc(Cl)c(COc2cnc(OCC(F)(F)C(F)(F)F)c(Cl)c2)cc1F` [Example 46, 5-Chloro-4-({[5-chloro-6-(2,2,3,3,3-pentafluoropropoxy)pyridin-3-yl]oxy}methyl)-2-fluoro-N-(methylsulfonyl)benzamide] the figure was 7.74.

As for `COc1cc(COc2cnc(OCC(C)C)c(Cl)c2)ccc1C(=O)NS(C)(=O)=O` [Example 47, 4-{[(5-Chloro-6-isobutoxypyridin-3-yl)oxy]methyl}-2-methoxy-N-(methylsulfonyl)benzamide], the pIC50 is 5.36. The value for `COc1cc(COc2cnc(OC(C)C)c(Cl)c2)ccc1C(=O)NS(C)(=O)=O` [Example 48, 4-{[(5-Chloro-6-isopropoxypyridin-3-yl)oxy]methyl}-2-methoxy-N-(methylsulfonyl)benzamide] was less than 5.52; that for `CC(C)(Oc1ncc(OCc2cc(F)c(C(=O)NS(C)(=O)=O)cc2F)cc1Cl)C(F)(F)F` [Example 49, 4-({[5-Chloro-6-(2,2,2-trifluoro-1,1-dimethylethoxy)pyridin-3-yl]oxy}methyl)-2,5-difluoro-N-(methylsulfonyl)benzamide] was 8.01; that for `CC(C)c1ncc2ncc(COc3cc(F)c(C(=O)NS(C)(=O)=O)cc3Cl)cn12` [Example 50] was less than 5.52. The value for `COc1ncc(COc2ccc(C(=O)NS(C)(=O)=O)cc2Cl)cc1Cl` [Example 51] was 5.21; that for `CS(=O)(=O)NC(=O)c1ccc(COc2cccc3cnccc23)cc1` [Example 52] was less than 5.52; that for `CS(=O)(=O)NC(=O)c1ccc(COc2ccc3ccncc3c2)cc1` [Example 53] was less than 5.52. With `CS(=O)(=O)NC(=O)c1cc(F)c(COc2cc(C(F)(F)F)c(Cl)cn2)cc1F` [Example 55, 4-({[5-Chloro-4-(trifluoromethyl)pyridin-2-yl]oxy}methyl)-2,5-difluoro-N-(methylsulfonyl)benzamide] the figure was less than 6.00; with `CS(=O)(=O)NC(=O)c1cc(F)c(COc2ccc(C(F)(F)F)cn2)cc1F` [Example 56, 2,5-Difluoro-N-(methylsulfonyl)-4-({[5-(trifluoromethyl)pyridin-2-yl]oxy}methyl)benzamide], 5.17.

On to `CS(=O)(=O)NC(=O)c1cc(Cl)c(COc2cnc(C3CC3)c(C3CC3)c2)cc1F` [Example 57, 5-Chloro-4-{[(5,6-dicyclopropylpyridin-3-yl)oxy]methyl}-2-fluoro-N-(methylsulfonyl)benzamide diethylamine salt.], for which the pIC50 was 6.82. With `CC(C)Oc1ncc(OCc2cc(F)c(C(=O)NS(C)(=O)=O)cc2Cl)cn1` [Example 58, 5-Chloro-2-fluoro-4-{[(2-isopropoxypyrimidin-5-yl)oxy]methyl}-N-(methylsulfonyl)benzamide] the figure was 5.16; with `CS(=O)(=O)NC(=O)c1cc(Cl)c(COc2cnc(C3CC3)c(OC(F)F)c2)cc1F` [Example 59, 5-Chloro-4-({[6-cyclopropyl-5-(difluoromethoxy)pyridin-3-yl]oxy}methyl)-2-fluoro-N-(methylsulfonyl)benzamide diethylamine salt], 6.45; with `CS(=O)(=O)NC(=O)c1cc(F)c(COc2ncc(Cl)cc2Cl)cc1F` [Example 60, 4-{[(3,5-dichloropyridin-2-yl)oxy]methyl}-2,5-difluoro-N-(methylsulfonyl)benzamide], less than 5.52.

With `CS(=O)(=O)NC(=O)c1cc(F)c(COc2cc(C(F)(F)F)nc(C(F)(F)F)c2)cc1F` [Example 61, 4-({[2,6-bis(trifluoromethyl)pyridin-4-yl]oxy}methyl)-2,5-difluoro-N-(methylsulfonyl)benzamide], the pIC50 is 5.74.

As to `CS(=O)(=O)NC(=O)c1ccc(COc2cc(C(F)(F)F)c(Cl)cn2)cc1` [Example 62, 4-({[5-Chloro-4-(trifluoromethyl)pyridin-2-yl]oxy}methyl)-N-(methylsulfonyl)benzamide], the pIC50 is 5.47. With `CS(=O)(=O)NC(=O)c1ccc(COc2ccc(Cl)cn2)cc1` [Example 63, 4-{[(5-Chloropyridin-2-yl)oxy]methyl}-N-(methylsulfonyl)benzamide] the figure was 5.18. With `CS(=O)(=O)NC(=O)c1cc(F)c(OCc2ccc(Cl)cn2)cc1F` [Example 64, 4-[(5-Chloropyridin-2-yl)methoxy]-2,5-difluoro-N-(methylsulfonyl)benzamide diethylamine salt] the figure was less than 6.00.
